Laboratory results reported in ChEMBL document CHEMBL1132765, “Synthesis and antibacterial activity of new carbapenems containing isoxazole moiety” (2000).
In brackets after ≈: the same amount, converted by molar mass.

Key:
[1] = target: T1, Dipeptidase 1 (Sus scrofa) (UniProt P22412); test: Relative t1/2 hydrolysis to meropenem by partially purified porcine renal DHP-1; assay type: functional
T1 sequence (whole entry): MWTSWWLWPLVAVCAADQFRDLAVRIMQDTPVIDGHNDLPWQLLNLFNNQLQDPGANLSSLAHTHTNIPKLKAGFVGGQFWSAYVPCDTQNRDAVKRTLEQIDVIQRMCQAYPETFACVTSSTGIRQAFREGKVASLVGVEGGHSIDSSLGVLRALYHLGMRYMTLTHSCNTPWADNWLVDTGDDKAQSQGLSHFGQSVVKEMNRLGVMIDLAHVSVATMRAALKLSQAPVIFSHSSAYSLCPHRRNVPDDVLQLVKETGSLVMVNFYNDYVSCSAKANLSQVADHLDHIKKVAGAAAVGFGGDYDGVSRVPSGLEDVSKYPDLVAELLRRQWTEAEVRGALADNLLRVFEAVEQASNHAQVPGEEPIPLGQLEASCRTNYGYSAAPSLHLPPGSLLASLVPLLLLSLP

Enterobacter cloacae = test: In vitro antibacterial activity against Enterobacter cloacae 1321E; assay type: functional
Escherichia coli [2] = test: In vitro antibacterial activity against Escherichia coli 078; assay type: functional
Escherichia coli [3] = test: In vitro antibacterial activity against Escherichia coli 1507E; assay type: functional
Klebsiella aerogenes = test: In vitro antibacterial activity against Klebsiella aerogenes 1522E; assay type: functional
Pseudomonas aeruginosa [4] = test: In vitro antibacterial activity against Pseudomonas aeruginosa 1592E; assay type: functional
Pseudomonas aeruginosa [5] = test: In vitro antibacterial activity against Pseudomonas aeruginosa 1771M; assay type: functional
Pseudomonas aeruginosa [6] = test: In vitro antibacterial activity against Pseudomonas aeruginosa 9027; assay type: functional
Salmonella typhimurium = test: In vitro antibacterial activity against Salmonella Typhimurium; assay type: functional, Salmonella enterica subsp. enterica serovar Typhimurium
Staphylococcus aureus [7] = test: In vitro antibacterial activity against Staphylococcus aureus 285; assay type: functional
Staphylococcus aureus [8] = test: In vitro antibacterial activity against Staphylococcus aureus 503; assay type: functional
Staphylococcus aureus [9] = test: In vitro antibacterial activity against Staphylococcus aureus SG511; assay type: functional
Streptococcus pyogenes = test: In vitro antibacterial activity against Streptococcus pyogenes 308A; assay type: functional
[10] = Enterobacter cloacae, read-out: MIC
[11] = Escherichia coli, read-out: MIC
[12] = Klebsiella aerogenes, read-out: MIC
[13] = Pseudomonas aeruginosa, read-out: MIC
[14] = Salmonella enterica, read-out: MIC
[15] = Staphylococcus aureus, read-out: MIC
[16] = Streptococcus pyogenes, read-out: MIC

Row | Relative t1/2 [1] | MIC (Enterobacter cloacae; [10]) [µg/mL] | MIC (Escherichia coli [2]; [11]) [µg/mL] | MIC (Escherichia coli [3]; [11]) [µg/mL] | MIC (Klebsiella aerogenes; [12]) [µg/mL] | MIC (Pseudomonas aeruginosa [4]; [13]) [µg/mL] | MIC (Pseudomonas aeruginosa [5]; [13]) [µg/mL] | MIC (Pseudomonas aeruginosa [6]; [13]) [µg/mL] | MIC (Salmonella typhimurium; [14]) [µg/mL] | MIC (Staphylococcus aureus [7]; [15]) [µg/mL] | MIC (Staphylococcus aureus [8]; [15]) [µg/mL] | MIC (Staphylococcus aureus [9]; [15]) [µg/mL] | MIC (Streptococcus pyogenes; [16]) [µg/mL] | Structure (SMILES) | other results
1 | 1.5 | 0.098 | 0.195 | 0.098 | 0.195 | 0.391 | 0.195 | 0.391 | 0.195 | 0.195 | 0.049 | 0.098 | 0.013 | C[C@@H](O)[C@H]1C(=O)N2C(C(=O)O)=C(S[C@@H]3CN[C@H](C4CC[N+](C)(C)O4)C3)[C@H](C)[C@H]12.[Cl-] (some centres undefined) | –
2 | 1.66 | 0.049 | 0.098 | 0.049 | 0.195 | 0.391 | 0.195 | 0.195 | 0.195 | 0.098 | 0.025 | 0.049 | 0.007 | C[C@@H](O)[C@H]1C(=O)N2C(C(=O)O)=C(S[C@@H]3CN[C@H](C4CC[N+](C)(CC(N)=O)O4)C3)[C@H](C)[C@H]12.[Cl-] (some centres undefined) | –
3 | – | – | – | – | – | – | – | – | – | – | – | – | – | C[C@@H](O)[C@H]1C(=O)N2C(C(=O)O)=C(S[C@@H]3CN[C@H](C4CC(CO)=NO4)C3)[C@H](C)[C@H]12 (stereo in doubt; form 2) [listing 1 of 2 here] | MIC (Enterobacter cloacae): 0.025 µg/mL (≈ 0.0608 µM); MIC (Escherichia coli [2]): 0.025 µg/mL (≈ 0.0608 µM); MIC (Escherichia coli [3]): 0.025 µg/mL (≈ 0.0608 µM); MIC (Klebsiella aerogenes): 0.049 µg/mL (≈ 0.119 µM); MIC (Pseudomonas aeruginosa [4]): 0.391 µg/mL (≈ 0.95 µM); MIC (Pseudomonas aeruginosa [5]): 0.195 µg/mL (≈ 0.474 µM); MIC (Pseudomonas aeruginosa [6]): 0.391 µg/mL (≈ 0.95 µM); MIC (Salmonella typhimurium): 0.049 µg/mL (≈ 0.119 µM); MIC (Staphylococcus aureus [7]): 0.098 µg/mL (≈ 0.238 µM); MIC (Staphylococcus aureus [8]): 0.049 µg/mL (≈ 0.119 µM); MIC (Staphylococcus aureus [9]): 0.098 µg/mL (≈ 0.238 µM); MIC (Streptococcus pyogenes): 0.013 µg/mL (≈ 0.0316 µM)
4 | – | 0.049 (≈ 0.119 µM) | 0.049 (≈ 0.119 µM) | 0.049 (≈ 0.119 µM) | 0.098 (≈ 0.238 µM) | 0.391 (≈ 0.95 µM) | 0.098 (≈ 0.238 µM) | 0.391 (≈ 0.95 µM) | 0.098 (≈ 0.238 µM) | 0.098 (≈ 0.238 µM) | 0.049 (≈ 0.119 µM) | 0.098 (≈ 0.238 µM) | 0.013 (≈ 0.0316 µM) | C[C@@H](O)[C@H]1C(=O)N2C(C(=O)O)=C(S[C@@H]3CN[C@H](C4CC(CO)=NO4)C3)[C@H](C)[C@H]12 (stereo in doubt; form 1) [listing 1 of 2 here] | –
5 | 1.09 | – | – | – | – | – | – | – | – | – | – | – | – | C[C@@H](O)[C@H]1C(=O)N2C(C(=O)O)=C(S[C@@H]3CN[C@H](C4CC(CO)=NO4)C3)[C@H](C)[C@H]12 (stereo in doubt; form 1) [listing 2 of 2 here] | –
6 | 0.78 | – | – | – | – | – | – | – | – | – | – | – | – | C[C@@H](O)[C@H]1C(=O)N2C(C(=O)O)=C(S[C@@H]3CN[C@H](C4CC(CO)=NO4)C3)[C@H](C)[C@H]12 (stereo in doubt; form 2) [listing 2 of 2 here] | –
7 | 0.94 | 0.025 (≈ 0.0551 µM) | 0.013 (≈ 0.0287 µM) | 0.013 (≈ 0.0287 µM) | 0.049 (≈ 0.108 µM) | 0.781 (≈ 1.72 µM) | 0.391 (≈ 0.862 µM) | 0.781 (≈ 1.72 µM) | 0.049 (≈ 0.108 µM) | 0.391 (≈ 0.862 µM) | 0.098 (≈ 0.216 µM) | 0.195 (≈ 0.43 µM) | 0.025 (≈ 0.0551 µM) | CCOC(=O)C1=NOC([C@@H]2C[C@H](SC3=C(C(=O)O)N4C(=O)[C@H]([C@@H](C)O)[C@H]4[C@H]3C)CN2)C1 (some centres undefined) | –
8 | 0.8 | 0.025 (≈ 0.0611 µM) | 0.025 (≈ 0.0611 µM) | 0.025 (≈ 0.0611 µM) | 0.049 (≈ 0.12 µM) | 1.56 (≈ 3.82 µM) | 0.391 (≈ 0.955 µM) | – | 0.049 (≈ 0.12 µM) | 0.098 (≈ 0.239 µM) | 0.049 (≈ 0.12 µM) | 0.098 (≈ 0.239 µM) | 0.013 (≈ 0.0317 µM) | C[C@@H](O)[C@H]1C(=O)N2C(C(=O)O)=C(S[C@@H]3CN[C@H](c4cc(CO)on4)C3)[C@H](C)[C@H]12 | MIC (Pseudomonas aeruginosa [6]): 1.56 µg/mL (≈ 3.82 µM)
9 | 1.27 | 0.025 (≈ 0.0629 µM) | 0.098 (≈ 0.247 µM) | 0.049 (≈ 0.123 µM) | 0.098 (≈ 0.247 µM) | 0.391 (≈ 0.984 µM) | 0.195 (≈ 0.491 µM) | 0.391 (≈ 0.984 µM) | 0.098 (≈ 0.247 µM) | 0.098 (≈ 0.247 µM) | 0.049 (≈ 0.123 µM) | 0.098 (≈ 0.247 µM) | 0.007 (≈ 0.0176 µM) | C[C@@H](O)[C@H]1C(=O)N2C(C(=O)O)=C(S[C@@H]3CN[C@H](C4CCN(C)O4)C3)[C@H](C)[C@H]12 (some centres undefined) | –

Row | Structure (SMILES) | Relative t1/2 [1] | MIC (Enterobacter cloacae; [10]) [µg/mL] | MIC (Escherichia coli [2]; [11]) [µg/mL] | MIC (Escherichia coli [3]; [11]) [µg/mL] | MIC (Klebsiella aerogenes; [12]) [µg/mL] | MIC (Pseudomonas aeruginosa [4]; [13]) [µg/mL] | MIC (Pseudomonas aeruginosa [5]; [13]) [µg/mL] | MIC (Pseudomonas aeruginosa [6]; [13]) [µg/mL] | MIC (Salmonella typhimurium; [14]) [µg/mL] | MIC (Staphylococcus aureus [7]; [15]) [µg/mL] | MIC (Staphylococcus aureus [8]; [15]) [µg/mL] | MIC (Staphylococcus aureus [9]; [15]) [µg/mL] | MIC (Streptococcus pyogenes; [16]) [µg/mL] | other results
10 | C[C@@H](O)[C@H]1C(=O)N2C(C(=O)O)=C(S[C@@H]3CN[C@H](C(=O)N(C)C)C3)[C@H](C)[C@H]12 [MEROPENEM] | 1 | 0.025 (≈ 0.0652 µM) | 0.025 (≈ 0.0652 µM) | 0.025 (≈ 0.0652 µM) | 0.049 (≈ 0.128 µM) | 0.195 (≈ 0.509 µM) | 0.049 (≈ 0.128 µM) | 0.195 (≈ 0.509 µM) | 0.049 (≈ 0.128 µM) | 0.195 (≈ 0.509 µM) | 0.098 (≈ 0.256 µM) | 0.195 (≈ 0.509 µM) | 0.013 (≈ 0.0339 µM) | –
